Data: PubChem BioAssay (NCI)
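Grown in 96-well plates, cells were treated for 48 hours with each compound at five concentrations. Insufficient inhibition: endpoint recorded as highest concentration tested. The concentration for 50% growth inhibition is given as GI50. TGI: total growth inhibition.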

Legend:
Assay in all cases: inhibition of tumour cell growth, NCI panel, 48 h; in the data active means GI50 below about 0.43 µM; inactive means the rest
HCC-2998 colon = system: HCC-2998 colon
SF-268 CNS = system: SF-268 CNS
HOP-62 NSCLC = system: HOP-62 NSCLC
RXF 393 renal = system: RXF 393 renal
SNB-19 CNS = system: SNB-19 CNS
HOP-92 NSCLC = system: HOP-92 NSCLC
SK-OV-3 ovarian = system: SK-OV-3 ovarian
786-0 renal = system: 786-0 renal
HS 578T breast = system: HS 578T breast
SF-295 CNS = system: SF-295 CNS
SNB-75 CNS = system: SNB-75 CNS
TK-10 renal = system: TK-10 renal
SW-620 colon = system: SW-620 colon
MALME-3M melanoma = system: MALME-3M melanoma
HT29 colon = system: HT29 colon
BT-549 breast = system: BT-549 breast
IGROV1 ovarian = system: IGROV1 ovarian
OVCAR-5 ovarian = system: OVCAR-5 ovarian
MOLT-4 leukemia = system: MOLT-4 leukemia
OVCAR-8 ovarian = system: OVCAR-8 ovarian
PC-3 prostate = system: PC-3 prostate
HCT-116 colon = system: HCT-116 colon
MCF7 breast = system: MCF7 breast
A549 NSCLC = system: A549 NSCLC
KM12 colon = system: KM12 colon
EKVX NSCLC = system: EKVX NSCLC
RPMI-8226 leukemia = system: RPMI-8226 leukemia
HL-60(TB) leukemia = system: HL-60(TB) leukemia
UO-31 renal = system: UO-31 renal
U251 CNS = system: U251 CNS
LOX IMVI melanoma = system: LOX IMVI melanoma
NCI-H23 lung = system: NCI-H23 lung
M14 melanoma = system: M14 melanoma
A498 renal = system: A498 renal
NCI-H522 lung = system: NCI-H522 lung
CCRF-CEM leukemia = system: CCRF-CEM leukemia
MDA-MB-231 breast = system: MDA-MB-231 breast
OVCAR-3 ovarian = system: OVCAR-3 ovarian
SN12C renal = system: SN12C renal
NCI-H226 lung = system: NCI-H226 lung
MDA-MB-435 = system: MDA-MB-435
OVCAR-4 ovarian = system: OVCAR-4 ovarian
UACC-257 melanoma = system: UACC-257 melanoma
SK-MEL-5 melanoma = system: SK-MEL-5 melanoma
NCI/ADR-RES ovarian = system: NCI/ADR-RES ovarian
SK-MEL-28 melanoma = system: SK-MEL-28 melanoma
COLO 205 colon = system: COLO 205 colon
DU-145 prostate = system: DU-145 prostate
SK-MEL-2 melanoma = system: SK-MEL-2 melanoma
UACC-62 melanoma = system: UACC-62 melanoma
CAKI-1 renal = system: CAKI-1 renal
ACHN renal = system: ACHN renal
NCI-H460 lung = system: NCI-H460 lung
HCT-15 colon = system: HCT-15 colon
SF-539 CNS = system: SF-539 CNS
T-47D breast = system: T-47D breast

Cc1cc2c(C#N)n3c(c2cc1C)C(=O)C(c1ccccc1)Oc1ccccc1-3 (configuration not stated)
39.6 µM: TGI (RXF 393 renal)
> 100 µM: TGI (HCC-2998 colon) | TGI (SF-268 CNS) | TGI (HOP-62 NSCLC) | TGI (SNB-19 CNS) | TGI (SK-OV-3 ovarian) | TGI (786-0 renal) | TGI (HS 578T breast) | TGI (SF-295 CNS) | TGI (TK-10 renal)
9.58 µM: TGI (SNB-75 CNS)
inactive: GI50 (HCC-2998 colon) > 100 µM | GI50 (SF-268 CNS) 3.73 µM | GI50 (HOP-62 NSCLC) 3.71 µM | GI50 (RXF 393 renal) 2.71 µM | GI50 (SNB-19 CNS) 2.97 µM | GI50 (HOP-92 NSCLC) 1.62 µM | GI50 (SK-OV-3 ovarian) 5.55 µM | GI50 (786-0 renal) 3.91 µM | GI50 (HS 578T breast) 4.29 µM | GI50 (SF-295 CNS) 3.83 µM | GI50 (SNB-75 CNS) 2.25 µM | GI50 (TK-10 renal) 3.33 µM
5.77 µM: TGI (HOP-92 NSCLC)

COc1ccc(C(=O)CC(Cl)=C(Cl)Cl)cc1
97.4 µM: TGI (HCT-15 colon)
95 µM: TGI (HL-60(TB) leukemia)
53.5 µM: TGI (CAKI-1 renal)
49.9 µM: TGI (UACC-62 melanoma)
81.5 µM: TGI (NCI-H522 lung)
62.7 µM: TGI (MDA-MB-435)
54.7 µM: TGI (UO-31 renal)
63.4 µM: TGI (HCT-116 colon)
> 100 µM: TGI (SW-620 colon) | TGI (SF-268 CNS) | TGI (HOP-62 NSCLC) | TGI (OVCAR-8 ovarian) | TGI (PC-3 prostate) | TGI (MCF7 breast) | TGI (A549 NSCLC) | TGI (SNB-19 CNS) | TGI (KM12 colon) | TGI (EKVX NSCLC) | TGI (SK-OV-3 ovarian) | TGI (U251 CNS) | TGI (A498 renal) | TGI (CCRF-CEM leukemia) | TGI (MDA-MB-231 breast) | TGI (SN12C renal) | TGI (HS 578T breast) | TGI (UACC-257 melanoma) | TGI (SK-MEL-5 melanoma) | TGI (DU-145 prostate) | TGI (SK-MEL-2 melanoma) | TGI (SF-295 CNS) | TGI (NCI-H460 lung) | TGI (SF-539 CNS)
41.4 µM: TGI (ACHN renal)
85.7 µM: TGI (NCI-H226 lung)
61.9 µM: TGI (T-47D breast)
37.2 µM: TGI (SK-MEL-28 melanoma)
43.4 µM: TGI (LOX IMVI melanoma)
83.5 µM: TGI (HT29 colon)
97.1 µM: TGI (RXF 393 renal)
57.3 µM: TGI (BT-549 breast)
41.2 µM: TGI (OVCAR-3 ovarian)
43 µM: TGI (MALME-3M melanoma)
75.9 µM: TGI (IGROV1 ovarian)
68.5 µM: TGI (RPMI-8226 leukemia)
59.9 µM: TGI (TK-10 renal)
56.1 µM: TGI (OVCAR-4 ovarian)
53.7 µM: TGI (HOP-92 NSCLC)
47.1 µM: TGI (NCI-H23 lung)
inactive: GI50 (SW-620 colon) 33.5 µM | GI50 (MALME-3M melanoma) 20.4 µM | GI50 (HT29 colon) 22 µM | GI50 (SF-268 CNS) 38.2 µM | GI50 (BT-549 breast) 21.6 µM | GI50 (IGROV1 ovarian) 28.3 µM | GI50 (HOP-62 NSCLC) 61.4 µM | GI50 (RXF 393 renal) 32 µM | GI50 (OVCAR-5 ovarian) 22.6 µM | GI50 (MOLT-4 leukemia) 19.7 µM | GI50 (OVCAR-8 ovarian) 33.2 µM | GI50 (PC-3 prostate) 26.7 µM | GI50 (HCT-116 colon) 22.2 µM | GI50 (MCF7 breast) 53.4 µM | GI50 (A549 NSCLC) > 100 µM | GI50 (SNB-19 CNS) 32.4 µM | GI50 (KM12 colon) 71.2 µM | GI50 (EKVX NSCLC) 28.5 µM | GI50 (RPMI-8226 leukemia) 23.5 µM | GI50 (HL-60(TB) leukemia) 34.2 µM | GI50 (HOP-92 NSCLC) 19.3 µM | GI50 (SK-OV-3 ovarian) > 100 µM | GI50 (UO-31 renal) 25.8 µM | GI50 (U251 CNS) 36 µM | GI50 (LOX IMVI melanoma) 19.2 µM | GI50 (NCI-H23 lung) 23.3 µM | GI50 (786-0 renal) 21.7 µM | GI50 (M14 melanoma) 27.5 µM | GI50 (A498 renal) > 100 µM | GI50 (NCI-H522 lung) 34.3 µM | GI50 (CCRF-CEM leukemia) 30.3 µM | GI50 (MDA-MB-231 breast) 33.1 µM | GI50 (OVCAR-3 ovarian) 20.6 µM | GI50 (SN12C renal) 34.6 µM | GI50 (NCI-H226 lung) 34.1 µM | GI50 (MDA-MB-435) 24.8 µM | GI50 (HS 578T breast) > 100 µM | GI50 (OVCAR-4 ovarian) 19.8 µM | GI50 (UACC-257 melanoma) 34.4 µM | GI50 (SK-MEL-5 melanoma) 33.8 µM | GI50 (NCI/ADR-RES ovarian) 25.2 µM | GI50 (SK-MEL-28 melanoma) 16 µM | GI50 (COLO 205 colon) 25.6 µM | GI50 (DU-145 prostate) 31.5 µM | GI50 (SK-MEL-2 melanoma) 44.4 µM | GI50 (UACC-62 melanoma) 21.7 µM | GI50 (SF-295 CNS) 59.9 µM | GI50 (CAKI-1 renal) 23.2 µM | GI50 (TK-10 renal) 23.9 µM | GI50 (ACHN renal) 20.1 µM | GI50 (NCI-H460 lung) > 100 µM | GI50 (HCT-15 colon) 28 µM | GI50 (SF-539 CNS) 37.2 µM | GI50 (T-47D breast) 26.2 µM
59.4 µM: TGI (NCI/ADR-RES ovarian)
66.1 µM: TGI (M14 melanoma)
61.5 µM: TGI (COLO 205 colon)
64.2 µM: TGI (MOLT-4 leukemia)
44.7 µM: TGI (786-0 renal)
50.4 µM: TGI (OVCAR-5 ovarian)
